According to PubChem BioAssay AID720513 (Broad Institute, 2013):
Results filed as inconclusive are left out.

test system: U2OS PGC1a acetylation AlphaLISA, overnight; experiment: activators raising PGC1a acetylation in cells, dose response, cell-based, cherry-picked samples, set 6 (AID 720513);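 also: cells made to overexpress flag tagged PGC1a plus GCN5 acetyltransferase by viral infection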

SMILES	AC40 [µM]
COc1ccc(CCNC(=O)c2cc(-c3ccco3)on2)cc1OC	5.2
Cc1c(OCc2ccc(C(=O)O)cc2)ccc2c(-c3ccccc3)cc(=O)oc12	7.28
Cc1ccc(/C(N)=N/OC(=O)c2ccco2)cc1	8.81
O=C(Cc1ccccc1)N1CCN(C(=O)c2cccs2)CC1	10
CC1CCCN(Cc2c(O)ccc3c(=O)c(-c4nc5ccccc5s4)c(N)oc23)C1 (stereo not drawn)	5.03
COc1cccc(N(CC(=O)NCc2cccnc2)S(C)(=O)=O)c1	14.2
O=[N+]([O-])c1ccc(S(=O)(=O)c2cccc(C(F)(F)F)c2)nc1	0.581
COc1ccc(N(C(=O)c2csnn2)C(C(=O)NC2CCCC2)c2cccs2)cc1 (stereo not drawn)	2.62
OC(c1ccccc1)(C1CCCCC1)C(CN1CCOCC1)c1ccccc1 (stereo not drawn)	0.634
CCOc1ccc(Nc2oc(-c3ccc(Cl)cc3)nc2C#N)cc1	3.09
CC(=O)CCS(=O)(=O)c1ccc(C)c(C)c1	6.64
COc1ccc(C2N(S(=O)(=O)c3ccccc3)CCN2S(=O)(=O)c2ccc(C)cc2)cc1 (stereo not drawn)	6.61
c1coc(CN(Cc2cccs2)Cc2nnnn2C2CCCCC2)c1	2.52
COc1ccc(CCNCc2ccc(-c3ccccc3)cc2)cc1OC	2.23
Cc1c(C(=O)NCCSCc2c(F)cccc2Cl)cnn1-c1ccc(Cl)cc1	10.5
Cc1ccc(OC(=O)N(C)C[C@H]2OCc3ccccc3-c3c(n(C)c4ccccc34)C(=O)N([C@@H](C)CO)C[C@H]2C)cc1	4.98
COC(=O)c1cc2ccsc2n1CC(=O)Nc1cc(Cl)ccc1OC	7.88
CCOc1ccc(N(C)S(=O)(=O)c2cc(-c3cc(C)no3)ccc2OC)cc1	5.29
Cc1cccc2sc(N3CCN(C(=O)c4cccs4)CC3)nc12	16.7
Cc1noc(C)c1S(=O)(=O)Nc1ccc2c(c1)C(=O)N([C@@H](C)CO)C[C@@H](C)[C@@H](CN(C)Cc1ccc3c(c1)OCO3)OCCCC[C@@H](C)O2	3.78
O=C(/C=C/Sc1ncn[nH]1)c1ccc(Cl)cc1	0.395
Cc1cccc(Nc2nnc(-c3ccc(C(=O)N4C[C@H]5C[C@H](C4)c4cccc(=O)n4C5)cc3)c3ccccc23)c1	11.2
O=C(c1ccccc1Nc1ccc(SC(F)F)cc1)N1CCCCCC1	10.3
CCOC(=O)c1sc2nc(C)nc(NCc3ccccc3OC)c2c1C	3.12
CCn1c(SC/C=C/c2ccccc2)nnc1-c1cccs1	11.2
COc1ccc(Cc2nc(-c3ccc(NC(=O)c4cccnc4)cc3)no2)cc1	0.991
CC(C)CCNc1nc(N2CCCC2)c2c(c1C#N)CCN(C)C2	3.92

SMILES	AC40 [µM]
C[C@@H]1CN([C@@H](C)CO)C(=O)c2c(c3ccccc3n2C)-c2ccccc2CO[C@@H]1CN(C)C(=O)c1ccccc1	5.25
Cc1ccc(CN(CC(O)COc2cccc3[nH]cc(C)c23)C(C)(C)C)cc1 (stereo not drawn)	2.49
O=C1NCN(c2ccccc2)C12CCN(C(c1cc3ccccc3o1)c1nnnn1C1CCCCC1)CC2 (stereo not drawn)	1.78
CCOC(=O)CC(S(=O)(=O)c1ccccc1)S(=O)(=O)c1ccccc1	4.09
COc1cc(CN2CCCC(CO)(Cc3cccc(Cl)c3)C2)cc2c1OCO2 (stereo not drawn)	8.62
CCn1nc(C)c(CN2CCc3c([nH]c4ccccc34)C2C(C)(C)C)c1C (stereo not drawn)	0.88
Cc1ccc(NC(=O)c2c(C(F)(F)F)nn(C)c2SCc2ccc(Cl)cc2)cc1C	5.5
C[C@@H]1CN([C@H](C)CO)C(=O)c2c(c3ccccc3n2C)-c2ccccc2CO[C@@H]1CN(C)C(=O)c1ccccc1	5.94
Cn1cc(-c2ccc(C(=O)NCc3cccc(Cl)c3)c3occc23)cn1	4.85
O=C(CSc1nnc(Cn2cnc3ccccc32)o1)c1ccccc1	7.68
CC1CN(S(=O)(=O)c2ccc(C(=O)NCCCn3ccnc3)cc2)CC(C)O1 (stereo not drawn)	0.246
Cc1cc(C)c2c(-n3cccc3)c(C(=O)NNS(=O)(=O)c3ccc(F)cc3)sc2n1	5.62
OC1CCCC1NCc1ccnc2cc(Cl)ccc12 (stereo not drawn)	10.6
CCOC(=O)C1=C[C@@H](C(C)(C)C)N(S(=O)(=O)c2ccc(C)cc2)[C@H]1c1ccccc1	3.62
COc1ccc(NC(=O)N2CCN(c3ccc([N+](=O)[O-])cc3)CC2)cc1	1.52
COc1ccc(CCC(=O)NCCS(=O)(=O)N2CCN(c3ccccc3)CC2)cc1	13.4
CC(C)C(OC(=O)c1cccs1)C(=O)NC1CCCCC1 (stereo not drawn)	2.58
COc1ccc([N+](=O)[O-])cc1NCc1ccccc1	2.95
COc1ccc(S(=O)(=O)N(C)C[C@@H]2Oc3cc(C#CC4CC4)ccc3S(=O)(=O)N([C@@H](C)CO)C[C@@H]2C)cc1	15.2
CCOC(=O)C1(Cc2ccccc2)CCN(Cc2cccc(OC)c2O)CC1	6.65
Cc1ccccc1Cn1cc(NC(=O)c2cc(-c3cccs3)on2)cn1	1.32
Cc1cc(C)c(S(=O)(=O)Nc2ccccc2-c2ccccc2)c(C)c1	3.95
Cc1cc2cc3c(cc2nc1SCC(=O)OC(C)C)OCCO3	11.5
CCOC(=O)c1c(NC(=O)CSc2cn(CC)c3ccccc23)sc2c1CCC2	6.55
COc1ccc(NC(=O)c2sccc2SCc2cccc(C(F)(F)F)c2)cc1	4.18
Cc1nn2c(NCCCN3CCOCC3)c3c(nc2c1-c1ccccc1)CCC3	3.72
